Assays:
[1] = biological target: human sodium/iodide symporter (Homo sapiens, UniProt Q92911); conditions: versus perchlorate, on a molar concentration basis in serum; cited from earlier work
[2] = system: patients with COPD; conditions: administered orally; cited from earlier work
[3] = system: lung function (FEV1) of man with moderately severe COPD; assay: Sequential 2-week treatments in one person with moderately severe COPD; assay type: in vivo, human
Method: After having stable lung function for around a month, they took 2.73 g activated charcoal in water daily for 2 weeks. […] After that, […] instead took 270 mg I2 daily in a vegetable capsule daily for 2 weeks. […] Thereafter, […] instead took 100 mg potassium perchlorate daily for 2 weeks. […] Following this, […] instead took 3 g IAC (prepared according to example 2, and consisting of 2.73 g activated charcoal with 270 mg iodine) daily for 2 weeks. […] Finally, they took a combination of 100 mg potassium perchlorate and 3 g IAC daily for 2 weeks.

[4] = system: patients with stable chronic bronchitis; conditions: cited from earlier work
[5] = in vivo; cited from earlier work
[6] = biological target: T1, sodium/iodide symporter (NIS) (Homo sapiens, UniProt Q92911); conditions: humans; cited from earlier work
T1 construct: host or cells: thyroid gland of human subjects (in vivo)
T1 sequence (Q92911 1-643): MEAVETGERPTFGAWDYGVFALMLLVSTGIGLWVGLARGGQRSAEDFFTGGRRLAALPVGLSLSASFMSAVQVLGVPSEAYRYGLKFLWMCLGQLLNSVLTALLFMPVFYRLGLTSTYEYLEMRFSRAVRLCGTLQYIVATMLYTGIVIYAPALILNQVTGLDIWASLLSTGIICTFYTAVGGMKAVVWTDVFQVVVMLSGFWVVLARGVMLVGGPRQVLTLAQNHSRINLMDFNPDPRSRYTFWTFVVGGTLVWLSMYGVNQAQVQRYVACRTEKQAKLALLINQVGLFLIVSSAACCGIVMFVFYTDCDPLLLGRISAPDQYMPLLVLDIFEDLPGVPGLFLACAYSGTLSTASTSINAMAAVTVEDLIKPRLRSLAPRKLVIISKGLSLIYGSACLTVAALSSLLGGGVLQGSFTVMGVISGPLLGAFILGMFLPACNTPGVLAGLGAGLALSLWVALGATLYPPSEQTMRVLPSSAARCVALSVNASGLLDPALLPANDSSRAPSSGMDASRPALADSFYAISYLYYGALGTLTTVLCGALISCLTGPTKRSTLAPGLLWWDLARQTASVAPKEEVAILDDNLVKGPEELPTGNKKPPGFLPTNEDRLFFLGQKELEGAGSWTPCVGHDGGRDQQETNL

N#C[S-].[Na+] [thiocyanate, Thiocyanate]
relative potency for inhibiting iodide uptake by the sodium/iodide symporter [1]: lower than that of perchlorate

II [I2, iodine]
effect on lung function [2]: does not improve the lung function | effect on lung function (FEV1), in words ([3]; in vivo): did not improve their lung function

Iodinated glycerol
improvement in pulmonary function ([4]; 16 weeks treatment): lack significant improvement | side effects ([4]; human, in vivo): side effects such as iodine poisoning

[O-][Cl+3]([O-])([O-])O [potassium perchlorate]
metabolism and storage in the body [5]: neither metabolised nor stored in the body | level that can temporarily inhibit the thyroid gland's ability to adsorb iodine from the bloodstream [6]: above 0.007 mg/(kg·d) | effect on lung function (FEV1), in words ([3]; daily for 2 weeks, one patient): did not improve the lung function at all

Reference: patent publication US9943542B2, “Compositions and methods for obtaining an improved lung function” (PHARMALUNDENSIS AB, priority 2013, dated 2018)
